Assay results taken from patent US20050101595A1, “N-containing cycloalkyl-substituted amino-thiazole derivatives and pharmaceutical compositions for inhibiting cell proliferation and methods for their use” (PFIZER INC., priority 2003, published 2005).
Counter-ions that a name gives are not always drawn. Like-named read-outs stand apart in the source and are kept apart here.

Columns and labels:
CDK2/Cyclin A = CDK2/Cyclin A (Homo sapiens, UniProt P24941); assay: Inhibition of CDK2/Cyclin A Retinoblastoma Kinase Activity; assay type: biochemical; details: for Ki: apparent Ki, CDK2/proteolyzed cyclin A, Rb fragment substrate, 25 μM ATP
Method in brief: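 Human CDK2, baculovirus/insect-cell expressed, complexed with proteolyzed cyclin A (10 nM or 19 nM CDK2) phosphorylates an Rb fragment with 25 μM [32P/33P]ATP at pH 7.4, 30° C, for 60 or 75 minutes under initial-rate conditions. Filter-captured radioactivity is read by phosphorimager; apparent Ki from competitive-inhibition fits.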

HCT-116 cell line = assay: Inhibition of cell growth, tetrazolium salt (MTT) assay; assay type: cell-based; details: for HCT-116 % Inhibition at 0.25 μM: 0.25 μM compound; for IC50: HCT-116, 120 h, MTT, three to five days, read-out: HCT-116 IC50
Method in brief: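 Growth inhibition is scored relative to cells receiving only 0.5% (v/v) DMSO. Plated cells rest 4 h, then take compound for three to five days at 37° C; MTT reduction to formazan is read at 540 nm.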

[1] = target: human CDK4 and genetically truncated (1-264) cyclin D3 (Homo sapiens, UniProt P11802); assay: Inhibition of CDK4/Cyclin D Retinoblastoma Kinase Activity; assay type: biochemical; details: for Ki: apparent Ki, CDK4/truncated cyclin D3, Rb fragment substrate, 25 μM ATP
Method in brief: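 Read-out: 32P/33P incorporation into Rb fragment (386-928) captured on nitrocellulose, phosphorimager. Enzyme 5 nM CDK4/cyclin D3(1-264) from insect cells; ATP 25 μM, pH 7.4, 30 °C, 20 min (60 min for tight binders). Ki from competitive fits.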

[2] = Homo sapiens, first HCT-116 column (c4)
[3] = Homo sapiens, second HCT-116 column (c5)

Chain of human CDK4 and genetically truncated (1-264) cyclin D3 (P11802 whole entry, the tested form may be a part): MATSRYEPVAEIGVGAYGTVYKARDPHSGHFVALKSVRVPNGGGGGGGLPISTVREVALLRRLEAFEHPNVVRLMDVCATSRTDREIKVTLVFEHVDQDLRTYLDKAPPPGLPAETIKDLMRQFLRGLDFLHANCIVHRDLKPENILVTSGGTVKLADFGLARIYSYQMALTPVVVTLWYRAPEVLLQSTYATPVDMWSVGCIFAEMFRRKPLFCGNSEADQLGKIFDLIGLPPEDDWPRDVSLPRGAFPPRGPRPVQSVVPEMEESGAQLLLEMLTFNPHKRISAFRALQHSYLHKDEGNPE
Chain of human CDK4 and genetically truncated (1-264) cyclin D3 (P30281 1-264 partner): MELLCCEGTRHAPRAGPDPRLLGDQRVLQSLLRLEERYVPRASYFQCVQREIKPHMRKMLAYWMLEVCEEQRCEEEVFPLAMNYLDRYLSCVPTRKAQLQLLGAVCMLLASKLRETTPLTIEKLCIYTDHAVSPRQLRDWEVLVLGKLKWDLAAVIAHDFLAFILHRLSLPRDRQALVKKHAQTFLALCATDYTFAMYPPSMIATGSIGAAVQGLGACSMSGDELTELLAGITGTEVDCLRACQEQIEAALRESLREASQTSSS

Structure (SMILES)	CDK2 % Inhibition at 0.03 μM (CDK2/Cyclin A; at 0.03 μM)	CDK4 % Inhibition at 0.03 μM ([1]; at 0.03 μM)	Ki (CDK2/Cyclin A)	IC50 (HCT-116 cell line; [2])	IC50 (HCT-116 cell line; [3])	Ki [1]	HCT-116 % Inhibition at 0.1 μM (HCT-116 cell line; HCT-116 cells, at 0.1 μM)	HCT-116 5 Inhibition at 0.25 μM (HCT-116 cell line; HCT-116 cells)	other results
CCOc1ccccc1C(=O)N1CCC(Nc2nc(N)c(C(=O)c3c(F)cccc3F)s2)CC1 [Example R6]	14%	42%	–	–	–	–	12%	51	–
N#Cc1cccc(C(=O)N2CCC(Nc3nc(N)c(C(=O)c4c(F)cccc4F)s3)CC2)c1 [Example Q77]	–	–	–	–	–	–	–	–	CDK2 % Inhibition at 0.03 μM (CDK2/Cyclin A; 0.03 μM compound, Table 4): 44%; HCT-116 % Inhibition at 0.1 μM (HCT-116 cell line; 0.1 μM compound, HCT-116, Table 4): 8%; HCT-116 % Inhibition at 0.25 μM (HCT-116 cell line; HCT-116, Table 4): 33%; CDK4 % Inhibition at 0.03 μM ([1]; 0.03 μM compound, Table 4): 72%
Nc1nc(NC2CCN(C(=O)NCCc3cccs3)CC2)sc1C(=O)c1c(F)cccc1F [Example O65]	–	–	–	–	–	–	–	–	CDK2 % Inhibition At 0.03 μM (CDK2/Cyclin A; 0.03 μM compound, Table 2): 22%; HCT-116 % Inhibition at 0.25 μM (HCT-116 cell line; HCT-116, Table 2): 44%; CDK4 % Inhibition at 0.03 μM ([1]; 0.03 μM compound, Table 2): −7%
Nc1nc(NC2CCN(S(=O)(=O)c3ccc(SCCN4CCOCC4)nc3)CC2)sc1C(=O)c1c(F)cccc1F [Example L7, 1-(4-Amino-2-{1-[6-(2-morpholin-4-yl-ethylsulfanyl)-pyridine-3-sulfonyl]-piperidin-4-ylamino}-thiazol-5-yl)-1-(2,6-difluoro-phenyl)-methanone Dihydrochloride.]	–	–	1.5 nM	95 nM	300 nM	2.2 nM	–	–	–
Nc1nc(NC2CCN(C(=O)CNc3ccc(O)cc3)CC2)sc1C(=O)c1c(F)cccc1F [Example R169]	22%	40%	–	–	–	–	0%	39	–
Nc1nc(NC2CCN(C(=O)NC3C[C@H]3c3ccccc3)CC2)sc1C(=O)c1c(F)cccc1F (some centres unmarked) [Example O1]	–	–	–	–	–	–	–	–	inhibition at 0.03 µM (CDK2/Cyclin A; 0.03 μM compound, Table 2): 30%; inhibition at 0.25 µM (HCT-116 cell line; Homo sapiens, HCT-116, 0.25 μM compound, HCT-116, Table 2, read-out: HCT-116 % Inhibition at 0.25 μM): 0%; inhibition at 0.03 µM ([1]; 0.03 μM compound, Table 2): -4%
Cc1c[nH]c(-c2ccc(S(=O)(=O)N3CCC(Nc4nc(N)c(C(=O)c5c(F)cccc5F)s4)CC3)cn2)n1 [Example I2, 1-(4-Amino-2-{1-[6-(4-methyl-1H-imidazol-2-yl)-pyridine-3-sulfonyl]-piperidin-4-ylamino}-thiazol-5-yl)-1-(2,6-difluoro-phenyl)-methanone Hydrochloride]	–	–	0.41 nM	240 nM	1400 nM	0.72 nM	–	–	–
Nc1nc(NC2CCN(S(=O)(=O)c3cc(Cl)sc3Cl)CC2)sc1C(=O)c1c(F)cccc1F [Example P35]	–	–	–	–	–	–	–	–	CDK2 % Inhibition at 0.03 μM (CDK2/Cyclin A; 0.03 μM compound, Table 3): 37%; HCT-116 % Inhibition at 0.1 μM (HCT-116 cell line; 0.1 μM compound, HCT-116, Table 3): 1%; HCT-116 % Inhibition at 0.25 μM (HCT-116 cell line; HCT-116, Table 3): 22%; CDK4 % Inhibition at 0.03 μM ([1]; 0.03 μM compound, Table 3): 47%
CC1CC1C(=O)N1CCC(Nc2nc(N)c(C(=O)c3c(F)cccc3F)s2)CC1 (centres unmarked) [Example R93]	−10%	−1%	–	–	–	–	0%	42	–

More lines, main results first:

CDK2 % Inhibition at 0.03 μM (CDK2/Cyclin A; at 0.03 μM)	CDK4 % Inhibition at 0.03 μM ([1]; at 0.03 μM)	Ki (CDK2/Cyclin A)	IC50 (HCT-116 cell line; [2])	IC50 (HCT-116 cell line; [3])	Ki [1]	Structure (SMILES)	HCT-116 % Inhibition at 0.1 μM (HCT-116 cell line; HCT-116 cells, at 0.1 μM)	HCT-116 5 Inhibition at 0.25 μM (HCT-116 cell line; HCT-116 cells)	other results
21%	42%	–	–	–	–	Nc1nc(NC2CCN(C(=O)CCc3ccccc3)CC2)sc1C(=O)c1c(F)cccc1F [Example R174]	0%	48	–
–	–	1.8 nM	50 nM	170 nM	1.7 nM	CN(C)CCOc1ccc(S(=O)(=O)N2CCC(Nc3nc(N)c(C(=O)c4c(Cl)cccc4Cl)s3)CC2)cn1 [Example H17, 1-(4-Amino-2-{1-[6-(2-dimethylamino-ethoxy)-pyridine-3-sulfonyl]-piperidin-4-ylamino}-thiazol-5-yl)-1-(2,6-dichloro-phenyl)-methanone Hydrochloride Salt]	–	–	–
–	–	0.8 nM	70 nM	700 nM	0.26 nM	Nc1nc(NC2CCN(S(=O)(=O)c3ccc(CCN4CCC[C@H]4CO)nc3)CC2)sc1C(=O)c1c(F)cccc1F [Example N9, [4-Amino-2-(1-{6-[2-(2S-hydroxymethyl-pyrrolidin-1-yl)-ethyl]-pyridine-3-sulfonyl}-piperidin-4-ylamino)-thiazol-5-yl]-(2,6-difluoro-phenyl)-methanone Hydrochloride Salt.]	–	–	–
–	–	1.5 nM	93 nM	1500 nM	0.52 nM	Nc1nc(NC2CCN(S(=O)(=O)c3cnc(OCCN4CCCCC4)nc3)CC2)sc1C(=O)c1c(F)cccc1F [Example H23, (4-Amino-2-{1-[2-(2-piperidin-1-yl-ethoxy)-pyrimidine-5-sulfonyl]-piperidin-4-ylamino}-thiazol-5-yl)-(2,6-difluoro-phenyl)-methanone Trifluoroacetic Acid Salt]	–	–	–
